Results: PubChem BioAssay (NCI)
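Grown in 96-well plates, cells were treated for 48 hours with each compound at five concentrations. Insufficient inhibition: endpoint recorded as highest concentration tested. At the GI50, growth is halved. TGI: concentration producing complete growth inhibition.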

Columns and labels:
Test in all cases: NCI anticancer screen, dose series, 48 h
HCC-2998 colon = system: HCC-2998 colon
M14 melanoma = system: M14 melanoma
SK-OV-3 ovarian = system: SK-OV-3 ovarian
MALME-3M melanoma = system: MALME-3M melanoma
OVCAR-8 ovarian = system: OVCAR-8 ovarian
SNB-75 CNS = system: SNB-75 CNS
SK-MEL-5 melanoma = system: SK-MEL-5 melanoma
HS 578T breast = system: HS 578T breast
MCF7 breast = system: MCF7 breast
NCI/ADR-RES ovarian = system: NCI/ADR-RES ovarian

| SMILES | TGI (HCC-2998 colon) [µM] | TGI (M14 melanoma) [µM] | TGI (SK-OV-3 ovarian) [µM] | TGI (MALME-3M melanoma) [µM] | TGI (OVCAR-8 ovarian) [µM] | TGI (SNB-75 CNS) [µM] | TGI (SK-MEL-5 melanoma) [µM] | GI50 (HCC-2998 colon) [µM] | GI50 (M14 melanoma) [µM] | GI50 (SK-OV-3 ovarian) [µM] | GI50 (MALME-3M melanoma) [µM] | GI50 (OVCAR-8 ovarian) [µM] | GI50 (SNB-75 CNS) [µM] | GI50 (SK-MEL-5 melanoma) [µM] | GI50 (HS 578T breast) [µM] | TGI (HS 578T breast) [µM] | GI50 (MCF7 breast) [µM] | TGI (MCF7 breast) [µM] | GI50 (NCI/ADR-RES ovarian) [µM] | TGI (NCI/ADR-RES ovarian) [µM] |
| --- | --- | --- | --- | --- | --- | --- | --- | --- | --- | --- | --- | --- | --- | --- | --- | --- | --- | --- | --- | --- |
| O=C(Nc1c(-c2nc3ccccc3[nH]2)sc(=S)n1-c1ccccc1)c1ccccc1 | > 100 | > 100 | > 100 | > 100 | > 100 | 58.4 | > 100 | – | – | – | – | – | – | – | – | – | – | – | – | – |
| O=C(CCC(=O)Nc1ccc(Cl)cc1)CC(=O)c1ccc(F)cc1 | > 100 | > 100 | > 100 | > 100 | > 100 | > 100 | – | – | – | – | – | – | – | – | – | – | – | – | – | – |
| CCC[CH2][Sn]([CH2]CCC)([O]C(=O)c1cccc(F)c1)[O]C(=O)c1cccc(F)c1 | 2.81 | 2.88 | 3.45 | 2.25 | 2.6 | 1.94 | 2.76 | 1.47 | 1.34 | 1.84 | 0.907 | 1.22 | 0.657 | 1.39 | – | – | – | – | – | – |
| Cc1ccc(C)c(NC(=O)c2cc(-c3ccc([N+](=O)[O-])cc3)nc(N)n2)c1 | > 100 | > 100 | > 100 | > 100 | > 100 | > 100 | > 100 | – | – | – | – | – | – | – | – | – | – | – | – | – |
| CCCN(CCC)c1ccc(CO)c(C)c1 | > 100 | > 100 | > 100 | 94.4 | > 100 | > 100 | 62.3 | > 100 | > 100 | > 100 | 11.3 | 27.4 | 68.2 | 18.9 | 42.2 | > 100 | > 100 | > 100 | > 100 | > 100 |
| CN1C(=O)CNC(=O)[C@H](NC(=O)c2nc3ccccc3cc2O)CSSC[C@H]1C(=O)NCCc1nc2ccccc2cc1O | > 75.9 | 35.4 | > 100 | 44.1 | 53.9 | 33.9 | 12.7 | 15.7 | 1.03 | > 100 | 15.8 | 20.8 | 15 | 3.05 | 21.5 | 67 | 6.23 | 27.4 | > 88.5 | > 100 |
| CC(C)(C)c1ccc([I+]c2ccc(C(C)(C)C)cc2)cc1 | 9.09 | 4.09 | 6.75 | 2.01 | 3.72 | 6.1 | 1.19 | 1.78 | 1.47 | 2.31 | 0.545 | 1.44 | 1.44 | 0.348 | 1.98 | 7.69 | 1.35 | 9.17 | 21.5 | 89.5 |
| O=c1cc(Cl)nc[nH]1 | > 100 | > 100 | > 100 | > 100 | > 100 | > 100 | > 100 | – | – | – | – | – | – | – | – | – | – | – | – | – |
| CC(=O)/C=C/C1=C(c2cc3ccccc3s2)c2ccccc2CC1 | 50.2 | 31.3 | > 100 | 58.4 | > 100 | > 100 | 35.3 | 22.7 | 15.1 | 67.9 | 26.6 | 39.4 | 29.8 | 16.3 | 52.5 | > 100 | 5.27 | > 100 | 30.9 | > 100 |
| O=Cc1ccc(-c2ccc(-c3ccc(C=O)s3)o2)s1 | 51.5 | > 100 | > 100 | > 100 | > 100 | 78.8 | > 100 | – | – | – | – | – | – | – | – | – | – | – | – | > 100 |
| CC(=O)OC1CCn2nnc(COC(=O)NC(C)C)c21 (stereo unspecified) | > 100 | > 100 | > 100 | > 100 | > 100 | > 100 | > 100 | – | – | – | – | – | – | – | – | – | – | – | – | – |
| CC(c1ccc(Br)cc1)C(C(=O)O)C(=O)O (stereo unspecified) | > 100 | > 100 | > 100 | > 100 | > 100 | > 100 | > 100 | – | – | – | – | – | – | – | – | – | – | – | – | – |
| CCCNCc1nc2ccc(Br)cc2c(=O)n1CCC | – | 27.4 | 32.6 | 26.4 | 26.7 | 31.7 | 21.6 | – | – | – | – | – | – | – | – | – | – | – | – | – |
| O=c1/c(=C/c2ccc(Cl)cc2Cl)sc2nc3ccccc3n12 | > 100 | > 100 | > 100 | > 100 | > 100 | > 100 | > 100 | – | – | – | – | – | – | – | – | – | – | – | – | – |
| O=c1c2ccc3cccc4c(=O)cc(c5ccccc15)-c2c34 | > 100 | > 100 | > 100 | > 100 | > 100 | > 100 | > 100 | – | – | – | – | – | – | – | – | – | – | – | – | – |
| Cc1ccccc1C(=O)Oc1ccc(Oc2ccccc2)cc1 | > 100 | > 100 | > 100 | > 100 | > 100 | > 100 | > 100 | – | – | – | – | – | – | – | – | – | – | – | – | – |
| Cc1cc(NS(=O)(=O)c2ccc(NC(=O)c3cccc4c(N)c5ccccc5nc34)cc2)no1 | – | 54 | 75.5 | 77.4 | 59.4 | > 100 | – | – | – | – | – | – | – | – | – | – | – | – | – | – |
| CC(C)C(=O)N[C@@H](C)C(=O)N(Cc1ccc2ccccc2c1)N=O | > 100 | > 100 | > 100 | > 100 | > 100 | > 100 | > 100 | – | – | – | – | – | – | – | – | – | – | – | – | – |
| N=C(c1ccccc1)N(O)C1CCCCC1 | > 100 | > 100 | – | > 100 | > 100 | > 100 | > 100 | – | – | – | – | – | – | – | – | – | – | – | – | – |
| C=C1CC(CCCl)(c2ccccc2)OC1=O (stereo unspecified) | > 100 | 38.6 | > 100 | 56.8 | > 100 | 71 | > 100 | – | – | – | – | – | – | – | – | – | – | – | – | – |
| O=C1Nc2ccccc2C1Cc1ccccc1 (stereo unspecified) | > 100 | > 100 | > 100 | > 100 | > 100 | > 100 | > 100 | – | – | – | – | – | – | – | – | > 100 | – | > 100 | – | – |
| CC1=CC(C)(C)N=C2SC(c3ccc(Cl)cc3)=NN12 | > 100 | > 100 | > 100 | 75.6 | – | – | 33.9 | – | – | – | – | – | – | – | – | – | – | – | – | – |
| Cc1ccc(NC(=O)/C(CC(=O)c2c[n+](=O)c3ccccc3n2O)=N\NC(=O)C[n+]2ccccc2)cc1 | > 100 | > 100 | > 100 | > 100 | > 100 | > 100 | > 100 | – | – | – | – | – | – | – | – | – | – | – | – | – |
